Measured values published in patent US12208160B2, “Pharmaceutical compositions comprising coated API” (Catalent U.K. Swindon Zydis Limited, priority 2020, dated 2025).

Assays:
[1] = Mid Volume Dissolution (MVD) 60-Minute Profile of freeze-dried finished product; format: physicochemical; settings: within ~5 mins; note to FIG. 26
Description: This analytical method is used to determine the mid-volume dissolution of freeze-dried finished products. The method employs a Distek small volume conversion kit. The method employs the Pion Rainbow Dynamic Dissolution Monitor (RDDM) at 75 rpm, with pH 7.2 phosphate buffer as a dissolution medium. Analysis is by fibre optic UV detection using the Pion μDISS Profiler with a UV detection under the 2nd derivative function using a 2 mm pathlength. Pathlength, dissolution media and wavelength range will vary depending on the API properties. […] A five-point calibration Curve is set up on the Pion software. The amount of API reference standard weighed will be dependent on the API. The following is an example for Ibuprofen:
As per USP <711>—A small, loose piece of non-reactive material, such as not more than a few turns on wire helix, may be attached to the freeze-dried tablets that would otherwise float. Add one freeze-dried tablet to each of the six dissolution vessels. The six probes will measure the absorbance of the API in the vessels and determine the % drug dissolved based on the calibration curve.
An additional methodology Mid Volume Dissolution (MVD) based on the 60-minute profile for the coated API has been developed to be able to directly compare dissolution profiles of the coated API with the resulting finished product units. […]

[2] = Low volume dissolution of Acetaminophen raw material and coated Acetaminophen material; format: physicochemical; settings: APAP
Description: This analytical method is used to determine the low volume dissolution of Acetaminophen raw material and coated Acetaminophen material. […] The following is the working standard 5-point calibration curve preparation for this Example. Calibration Point 1: Weigh accurately 50.0 mg of Acetaminophen reference standard into a 100 mL volumetric flask. Dissolve in approximately 80 mL of dissolution media and sonicate until fully dissolved. Dilute to volume with dissolution media mixing thoroughly. This is the calibration point 1 working standard solution (concentration: approximately 0.5 mg/mL). Calibration Point 2: Weigh accurately 100.0 mg of Acetaminophen reference standard into a 100 mL volumetric flask. Dissolve in approximately 80 mL of dissolution media and sonicate until fully dissolved. Dilute to volume with dissolution media mixing thoroughly. This is the calibration point 2 working standard solution (concentration: approximately 1.0 mg/mL). Calibration Point 3: Weigh accurately 200.0 mg of Acetaminophen reference standard into a 100 mL volumetric flask. Dissolve in approximately 80 mL of dissolution media and sonicate until fully dissolved. Dilute to volume with dissolution media mixing thoroughly. This is the calibration point 3 working standard solution (concentration: approximately 2.0 mg/mL). Calibration Point 4: Weigh accurately 500.0 mg of Acetaminophen reference standard into a 100 mL volumetric flask. Dissolve in approximately 80 mL of dissolution media and sonicate until fully dissolved. Dilute to volume with dissolution media mixing thoroughly. This is the calibration point 4 working standard solution (concentration: approximately 5.0 mg/mL). Calibration Point 5: Weigh accurately 550.0 mg of Acetaminophen reference standard into a 100 mL volumetric flask. Dissolve in approximately 80 mL of dissolution media and sonicate until fully dissolved (this standard solution may require slight heating to dissolve all Acetaminophen). If required, allow the solution to equilibrate to room temperature, dilute to volume with dissolution media and mix thoroughly. This is the calibration point 5 working standard solution (concentration: approximately 5.5 mg/mL). Acetaminophen raw material: Six samples are analyzed. […] The individual software potencies for each vessel will be input into the DissoPRO software at the start of experiment. Six samples are analyzed. For each sample, weigh accurately 125 mg of coated Acetaminophen material into a Pion low volume dissolution vessel. The individual software potencies for each vessel will be input into the DissoPRO software at the start of experiment. […] The Coated APAP has undergone coating at bench scale operation using the Resonance Acoustic Mixing manufacturing process. […] The slow release profile is indicative of achieving a successful coating and preventing the API from readily dissolving and therefore a taste masked API.

| SMILES | full release [1] [%] | % Acetaminophen dissolved ([2]; 0.0 minutes) [%] | % Acetaminophen dissolved ([2]; 5 minutes) [%] | % Acetaminophen dissolved ([2]; 10 minutes) [%] | % Acetaminophen dissolved ([2]; 15 minutes) [%] | % Acetaminophen dissolved ([2]; 20 minutes) [%] | % Acetaminophen dissolved ([2]; 25 minutes) [%] | % Acetaminophen dissolved ([2]; 30 minutes) [%] | equilibrium point (% dissolved) ([2]; within the first two minutes) |
| --- | --- | --- | --- | --- | --- | --- | --- | --- | --- |
| CC(C)Cc1ccc(C(C)C(=O)O)cc1 (stereo not drawn) [Raw Material, Ibuprofen] | ~80 |  |  |  |  |  |  |  |  |
| CC(=O)Nc1ccc(O)cc1 [Raw Material - AN190319, Acetaminophen] |  | 0 | 127 | 128 | 128 | 128 | 128 | 128 | over 100% |
